What was measured:
[1] = molecular target: kinase IRAK4 (Homo sapiens (Human), UniProt Q9NWZ3); assay: Inhibitory effects of compounds on kinase activity (fluorescence microfluidic mobility detection, competitive with ATP); format: biochemical; conditions: IRAK4 6 nM, ATP 10 μM
Procedure: Based on an experimental method of fluorescence microfluidic mobility detection, an IC50 value of competitive binding of kinase IRAK4 to ATP by the compounds was determined. The initial detection concentration of the compounds was 10 μM, diluted 4-fold gradient down to […], and tested in duplicate. Among them, commercial staurosporine was the standard control substance in this experiment.
1) IRAK4 kinase was dissolved in kinase buffer (50 mM HEPES pH 7.5, 10 mM MgCl2, 2 mM DTT and 0.01% Brij-35) to a final concentration of 6 nM.
2) The substrate peptide FAM-P8 and ATP were dissolved in the above kinase buffer. The final concentrations of the IRAK4 substrate peptide FAM-P8 and ATP were 3 μM and 10 μM respectively.
3) Dilution of the compounds: the compound was first diluted to 50 μM, and then diluted down with a 4-fold gradient of DMSO. The solution without the compound and kinase is used as a blank control, corresponding to the “minimum value” shown below; and the solution without the compound but with kinase, adenosine 5′-triphosphate disodium salt hydrate, DMSO and buffer is used as a positive control, corresponding to the “maximum value” shown below. 4) Kinase reaction and termination: 10 μL of kinase buffer was added to a 384-well plate containing 5 μL of the compound to be tested, and incubated at room temperature for 10 minutes. Another 10 μL of buffer containing the substrate peptide and adenosine 5′-triphosphate disodium salt hydrate was added to the 384-well plate. After incubation at 28° C. for one hour, 25 μL stop solution (100 mM HEPES pH 7.5, 50 mM EDTA, 0.2% Coating Reagent #3 and 0.015% Brij-35) was added to each well to terminate the reaction.
5) Data reading: the CaliperEZ Reader II instrument was used to read the conversion rate data. Conditions: downstream voltage −500V, upstream voltage −2250V, base pressure −0.5 PSI, and screening pressure −1.2 PSI.
6) Data calculation: the conversion rate data was copied from CaliperEZ Reader II and converted into inhibition rate data. The calculation formula is as follows:
[formula] • IC50 values were fitted using XLFit excel add-in version 5.4.0.8,
Y=Bottom+(Top−Bottom)/(1+(IC50/X)^HillSlope) Fitting formula: […]

[2] = molecular target: IRAK4 protein in THP-1 cells (Homo sapiens (Human), UniProt Q9NWZ3); assay: PROTAC-induced IRAK4 protein degradation in THP-1 cells (Western Blot); format: cell-based; conditions: for IRAK4 degradation rate 24 hours after administration of the compounds with a concentration of 1 μM: Western blotting; for DC50: concentration that degraded 50% of IRAK4, Western blotting, 24 hours after administration
IRAK4 protein in THP-1 cells, sequence (Q9NWZ3 whole entry): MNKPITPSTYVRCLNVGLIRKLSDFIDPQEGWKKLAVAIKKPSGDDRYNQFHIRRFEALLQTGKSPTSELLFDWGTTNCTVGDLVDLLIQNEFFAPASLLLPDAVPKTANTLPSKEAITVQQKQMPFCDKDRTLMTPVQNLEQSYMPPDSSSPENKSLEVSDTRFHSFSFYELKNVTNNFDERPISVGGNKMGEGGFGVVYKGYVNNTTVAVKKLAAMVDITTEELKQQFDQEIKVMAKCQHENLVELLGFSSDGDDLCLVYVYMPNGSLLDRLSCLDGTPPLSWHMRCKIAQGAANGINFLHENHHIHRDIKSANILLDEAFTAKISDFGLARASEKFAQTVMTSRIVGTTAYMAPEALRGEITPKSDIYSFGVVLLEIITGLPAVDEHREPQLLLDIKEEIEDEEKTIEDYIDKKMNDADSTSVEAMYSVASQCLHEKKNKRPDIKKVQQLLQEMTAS
Procedure: 2.1 Based on the experimental method of Western Blot, specific antibodies were used to stain the THP-1 cell samples treated by gel electrophoresis, and the degrading activity of the compounds on the IRAK4 protein in THP-1 cells was determined by analyzing the position and depth of staining. The concentrations of compound for the detection included 0 μM, 0.3 μM, 1 μM and 3 μM, and the cells were treated by the compound for 8 hours, 16 hours, 24 hours, and 48 hours. Glyceraldehyde-3-phosphate dehydrogenase (GAPDH) is an internal reference protein in this experiment.
Electrophoresis buffer: 50 mL MOPS SDS Running Buffer (20×) and 50 mL 20×TBS Tween-20 buffer were diluted with deionized water to 1 L as the electrophoresis buffer;
5% skim milk (w/v): 2.5 g skim milk was diluted with 50 mL 1×TBS Tween-20 buffer to prepare 5% skim milk;
5% BSA (w/v): 2.5 g BSA was diluted with 50 mL 1×TBS Tween-20 buffer to prepare 5% BSA;
Anti-IRAK4 antibody was diluted with 5% BSA at 1:1000 into a primary antibody working solution;
Goat Anti-Rabbit IgG H&L (HRP) was diluted with 5% BSA at 1:2000 into a second antibody working solution; and
Goat Anti-Mouse IgG H&L (HRP) was diluted with 5% BSA at 1:2000 into a second antibody working solution.
THP-1 cells were plated in a 6-well plate at a density of 1.5×10^6 cells per ml and incubated for 2 hours in a cell culture incubator under 37° C. and 5% CO2. The compound was diluted with DMSO to 0.6 mM, 0.2 mM and 0.06 mM respectively. 10 μL of compound solution was added to the corresponding wells, and continued to incubate in the incubator for 16 hours, 24 hours and 48 hours respectively. The compound-treated THP-1 cells in the well were collected, added with 120 μL of RIPA lysate containing protease inhibitor, Phosphatase Inhibitor Cocktail 2 and Phosphatase Inhibitor Cocktail 3, lysed on wet ice for 30 minutes, and then the cells lysate was centrifuged at a high speed and a low temperature for 5 minutes to collect the supernatant. The protein concentration of the cell sample was determined according to the instructions in the Pierce™ BCA Protein Assay Kit.
The concentration of the sample was adjusted to be consistent using lysis buffer and NuPAGE® LDS sample buffer containing 1M DTT. The samples were heated at 95° C. for 5 minutes and centrifuged at a low temperature and at a high speed. 20 μL of the prepared protein sample and 4 μL of PageRuler Prestained Protein Ladder were added into the gel well for running at 80V voltage for 0.5 hours, then the voltage was adjusted to 120V for further running for 1.5 hours. The gel was removed and the proteins in the gel were transferred to the IBlotTM 2 transfer membrane set at 20V. After successful transfer, bands at 65 kDa-40 kDa and 40 kDa-30 kDa were cut respectively. The membranes were blocked with 5% skim milk for 1 hour at room temperature. The membranes were washed three times with 1× concentration of TBST, then incubated with IRAK4 antibody working solution overnight at 4° C. The IRAK4 antibody working solution was discarded, and the membranes were washed three times with 1×concentration of TBST, and incubated with Goat Anti-Rabbit IgG H&L (HRP) working solution and Goat Anti-Mouse IgG H&L (HRP) working solution at room temperature. After 1 hour of incubation, the antibody working solution was discarded and the membranes were washed three times with 1× concentration of TBST. According to the instructions of the kit SuperSignal™ West Femto Maximum Sensitivity Substrate, the reagents in the kit were mixed in equal volume proportions to prepare a luminescent liquid mixture. The membranes were incubated for 1 minute, then removed for exposure.
The results of Western blotting 24 hours after administration of the compounds with a concentration of 1 μM were shown in Table 3: […]

kinase IRAK4, sequence (Q9NWZ3 whole entry): as above

Row | SMILES | IC50 ([1]; Table 1, class symbols) [µM] | IC50 ([1]; Table 2, substrate FAM-P8 3 μM) [µM] | IRAK4 degradation rate 24 hours after administration of the compounds with a concentration of 1 μM [2] | DC50 [2] [µM]
1 | COc1cc2nn(C3CC4(CCN(CC(=O)N5CCN(c6ccc7c(c6)C(=O)N(C6CCC(=O)NC6=O)C7=O)CC5)CC4)C3)cc2cc1NC(=O)c1cccc(C(F)(F)F)n1 (stereo not shown) [Compound I-2] | < 0.1 | 0.011 | 75~100% | 0.00441
2 | COc1cc2nn(C3CC4(CCN(C(=O)[C@H]5CC[C@H](CNc6ccc7c(c6)C(=O)N(C6CCC(=O)NC6=O)C7=O)CC5)CC4)C3)cc2cc1NC(=O)c1cccc(C(F)(F)F)n1 (stereo partly shown) [Compound I-3] | < 0.1 | 0.016 | 75~100% | 0.00364
3 | COc1cc2nn(C3CC4(CCN(C(=O)[C@H]5CC[C@H](Nc6ccc7c(c6)C(=O)N(C6CCC(=O)NC6=O)C7=O)CC5)CC4)C3)cc2cc1NC(=O)c1cccc(C(F)(F)F)n1 (stereo partly shown) [Compound I-4] | < 0.1 | 0.0366 |  | 0.00206
4 | CC(C)(O)c1cc2nn(C3CC4(CCN(C(=O)C5CCN(c6ccc7c(c6)C(=O)N(C6CCC(=O)NC6=O)C7=O)CC5)CC4)C3)cc2cc1NC(=O)c1cccc(C(F)(F)F)n1 (stereo not shown) [Compound I-5] |  | 0.0114 |  | 0.0036
5 | COc1cc2nn(C3CC4(CCN(C(=O)C5CCN(c6ccc7c(c6)CN(C6CCC(=O)NC6=O)C7=O)CC5)CC4)C3)cc2cc1NC(=O)c1cccc(C(F)(F)F)n1 (stereo not shown) [Compound I-7] |  | 0.0081 |  | 0.0036
6 | O=C1CCC(N2C(=O)c3ccc(N4CCC(C(=O)N5CCC6(CC5)CC(n5cc7cc(NC(=O)c8cccc(C(F)(F)F)n8)c(N8CCOCC8)cc7n5)C6)CC4)cc3C2=O)C(=O)N1 (stereo not shown) [Compound I-9] |  | 0.0329 |  | 0.012
7 | COc1cc2nn(C3CC4(CCN(CC5CCN(c6ccc7c(c6)C(=O)N(C6CCC(=O)NC6=O)C7=O)CC5)CC4)C3)cc2cc1NC(=O)c1cccc(C(F)(F)F)n1 (stereo not shown) [Compound I-13] | < 0.1 | 0.00481 |  | 0.0158
8 | COc1cc2nn(C3CC4(C3)CN(C(=O)C3CCN(c5ccc6c(c5)C(=O)N(C5CCC(=O)NC5=O)C6=O)CC3)C4)cc2cc1NC(=O)c1cccc(C(F)(F)F)n1 (stereo not shown) [Compound I-14] |  | 0.0166 |  | 0.0126
9 | COc1cc2nn(C3CC4(CCC(NC5CCN(c6ccc7c(c6)C(=O)N(C6CCC(=O)NC6=O)C7=O)CC5)CC4)C3)cc2cc1NC(=O)c1cccc(C(F)(F)F)n1 (stereo not shown) [Compound I-16] |  | 0.0116 |  | 0.0099
10 | COc1cc2nn(C3CC4(CCN(C(=O)C5CC6(C5)CN(c5ccc7c(c5)C(=O)N(C5CCC(=O)NC5=O)C7=O)C6)CC4)C3)cc2cc1NC(=O)c1cccc(C(F)(F)F)n1 (stereo not shown) [Compound I-17] |  | 0.031 |  | 0.0259
11 | COc1cc2nn(C3CC4(CCC(C(=O)N5CCN(c6ccc7c(c6)C(=O)N(C6CCC(=O)NC6=O)C7=O)CC5)CC4)C3)cc2cc1NC(=O)c1cccc(C(F)(F)F)n1 (stereo not shown) [Compound I-20] |  | 0.0236 |  | 0.0112
12 | COc1cc2nn(C3CCC4(CC3)CCN(C(=O)C3CCN(c5ccc6c(c5)C(=O)N(C5CCC(=O)NC5=O)C6=O)CC3)CC4)cc2cc1NC(=O)c1cccc(C(F)(F)F)n1 (stereo not shown) [Compound I-27] |  | 0.042 |  | 0.0069
13 | COc1cc2nn([C@H]3C[C@@H]4CN(C(=O)C5CCN(c6ccc7c(c6)C(=O)N(C6CCC(=O)NC6=O)C7=O)CC5)C[C@@H]4C3)cc2cc1NC(=O)c1cccc(C(F)(F)F)n1 (stereo partly shown) [Compound I-28] |  | 0.0125 |  | 0.0083
14 | COc1cc2nn(C3CC4(CCN(C(=O)[C@H]5CC[C@H](C(=O)N[C@H](C(=O)N6C[C@H](O)C[C@H]6C(=O)N[C@@H](C)c6ccc(-c7scnc7C)cc6)C(C)(C)C)CC5)CC4)C3)cc2cc1NC(=O)c1cccc(C(F)(F)F)n1 [Compound I-29] |  | 0.074 |  | 0.0163
15 | COc1cc2nn(C3CC4(CCN(C(=O)[C@H]5CC[C@H](Oc6ccc7c(c6)C(=O)N(C6CCC(=O)NC6=O)C7=O)CC5)CC4)C3)cc2cc1NC(=O)c1cccc(C(F)(F)F)n1 (stereo partly shown) [Compound I-31] |  | 0.034 |  | 0.0473
16 | COc1cc2c(cnn2C2CC3(CCC(C(=O)N4CCN(c5ccc6c(c5)C(=O)N(C5CCC(=O)NC5=O)C6=O)CC4)CC3)C2)cc1NC(=O)c1cccc(C(F)(F)F)n1 (stereo not shown) [Compound I-56] |  | 1.96 |  | 

Continued, values first:

Row | IC50 ([1]; Table 1, class symbols) [µM] | IC50 ([1]; Table 2, substrate FAM-P8 3 μM) [µM] | IRAK4 degradation rate 24 hours after administration of the compounds with a concentration of 1 μM [2] | DC50 [2] [µM] | SMILES
17 | < 0.1 | 0.0259 |  | 0.0082 | COc1cc2nn(C3CC4(CCN(C(=O)C5CCN(c6cc7c(cc6F)C(=O)N(C6CCC(=O)NC6=O)C7=O)CC5)CC4)C3)cc2cc1NC(=O)c1cccc(C(F)(F)F)n1 (stereo not shown) [Compound I-8]
18 |  | 0.024 |  | 0.00507 | O=C1CCC(N2C(=O)c3ccc(N4CCC(C(=O)N5CCC6(CC5)CC(n5cc7cc(NC(=O)c8cccc(C(F)(F)F)n8)c(N8CC[C@@H](O)C8)cc7n5)C6)CC4)cc3C2=O)C(=O)N1 (stereo partly shown) [Compound I-10]
19 |  | 0.0576 |  | 0.00108 | CC(O)(c1cc2nn(C3CC4(CCN(C(=O)C5CCN(c6ccc7c(c6)C(=O)N(C6CCC(=O)NC6=O)C7=O)CC5)CC4)C3)cc2cc1NC(=O)c1cccc(C(F)(F)F)n1)C(F)(F)F (stereo not shown) [Compound I-12F]
20 |  | 0.0081 |  | 0.00178 | COc1cc2nn(C3CCC4(CC3)CN(C(=O)C3CCN(c5ccc6c(c5)C(=O)N(C5CCC(=O)NC5=O)C6=O)CC3)C4)cc2cc1NC(=O)c1cccc(C(F)(F)F)n1 (stereo not shown) [Compound I-19]
21 |  | 0.0174 |  | 0.0153 | COc1cc2nn(C3CC4(CCN(C5CC6(CCN(c7ccc8c(c7)C(=O)N(C7CCC(=O)NC7=O)C8=O)CC6)C5)CC4)C3)cc2cc1NC(=O)c1cccc(C(F)(F)F)n1 (stereo not shown) [Compound I-24]
22 |  | 0.0204 |  | > 1 | COc1cc2nn(C3CC4(CCN(C(=O)C5CCN(c6cccc7c6C(=O)N(C6CCC(=O)NC6=O)C7=O)CC5)CC4)C3)cc2cc1NC(=O)c1cccc(C(F)(F)F)n1 (stereo not shown) [Compound I-25]
23 |  | 0.03 |  | 0.0446 | COc1cc2nn(C3CC4(CCN(C(=O)C5CCC6(CC5)CN(c5ccc7c(c5)C(=O)N(C5CCC(=O)NC5=O)C7=O)C6)CC4)C3)cc2cc1NC(=O)c1cccc(C(F)(F)F)n1 (stereo not shown) [Compound I-26]
